Laboratory results as given in the supplement of paper PMC10307832.

Columns and labels:
Test in all cases: relative viability (nuclei count vs DMSO), 5 days (fraction); higher = more cells survive
ALW-II-49-7 = compound: Cc1ccc(C(=O)Nc2cccc(C(F)(F)F)c2)cc1Nc1cncc(C(N)=O)c1 [ALW-II-49-7]
Method in brief: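 In 1536-well plates, lung cancer cell lines rested overnight at 37 °C before five library-drug doses (not always all listed), √10 apart, were pinned onto vehicle-anchored plates. Nuclei were counted with MetaXpress from 4× Hoechst images taken after 5 days without medium change. Viability compares treated-well with vehicle-well nuclei as a median over plates, and plates needed control CV below 25% plus at least one doubling to pass.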

XMD13-2 + Alpelisib = compound: C1CC1C(=O)NC2=NNC3=C2C=CC(=C3)C4=CC(=CC=C4)C(=O)NC5CC5 [XMD13-2] + Cc1nc(NC(=O)N2CCC[C@H]2C(N)=O)sc1-c1ccnc(C(C)(C)C(F)(F)F)c1 [Alpelisib] (partner 2 µM)
Method in brief: (§1)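 Lung cancer cell lines, seeded in 1536-well plates, were treated the following day by pin tool with a single drug or with five library-drug doses (not always all listed) in √10 steps on top of a fixed anchor-drug dose. Cells were fixed and nuclei stained in one step after 5 days, and nuclei were counted. Relative viability is the nuclei count for treated wells divided by that for vehicle wells, reported as medians of duplicate plates.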

ALW-II-49-7 + Trametinib = compound: Cc1ccc(C(=O)Nc2cccc(C(F)(F)F)c2)cc1Nc1cncc(C(N)=O)c1 [ALW-II-49-7] + CC(=O)Nc1cccc(-n2c(=O)n(C3CC3)c(=O)c3c(Nc4ccc(I)cc4F)n(C)c(=O)c(C)c32)c1 [Trametinib] (partner 0.02 µM)
Method in brief: as §1

ALW-II-49-7 + AZD7762 = compound: Cc1ccc(C(=O)Nc2cccc(C(F)(F)F)c2)cc1Nc1cncc(C(N)=O)c1 [ALW-II-49-7] + NC(=O)Nc1cc(-c2cccc(F)c2)sc1C(=O)N[C@H]1CCCNC1 [AZD7762] (partner 0.2 µM)
Method in brief: as §1

| Cell Line | relative viability (ALW-II-49-7; 0.08 µM) | relative viability (ALW-II-49-7; 0.253 µM) | relative viability (ALW-II-49-7; 0.8 µM) | relative viability (ALW-II-49-7; 2.53 µM) | relative viability (ALW-II-49-7; 8 µM) | relative viability (XMD13-2 + Alpelisib; first compound 0.05 µM) | relative viability (XMD13-2 + Alpelisib; first compound 0.1581 µM) | relative viability (XMD13-2 + Alpelisib; first compound 0.5 µM) | relative viability (XMD13-2 + Alpelisib; first compound 1.581 µM) | relative viability (XMD13-2 + Alpelisib; first compound 5 µM) | relative viability (ALW-II-49-7 + Trametinib; first compound 0.08 µM) | relative viability (ALW-II-49-7 + Trametinib; first compound 0.253 µM) | relative viability (ALW-II-49-7 + Trametinib; first compound 0.8 µM) | relative viability (ALW-II-49-7 + Trametinib; first compound 2.53 µM) | relative viability (ALW-II-49-7 + Trametinib; first compound 8 µM) | relative viability (ALW-II-49-7 + AZD7762; first compound 0.08 µM) | relative viability (ALW-II-49-7 + AZD7762; first compound 0.253 µM) | relative viability (ALW-II-49-7 + AZD7762; first compound 0.8 µM) | relative viability (ALW-II-49-7 + AZD7762; first compound 2.53 µM) | relative viability (ALW-II-49-7 + AZD7762; first compound 8 µM) |
| --- | --- | --- | --- | --- | --- | --- | --- | --- | --- | --- | --- | --- | --- | --- | --- | --- | --- | --- | --- | --- |
| NCI-H1792 | 0.679 | 0.873 | 0.915 | 0.73 | 0.654 | 0.845 | 0.691 | 0.745 | 0.845 | 0.821 | 0.583 | 0.436 | 0.42 | 0.369 | 0.471 | 0.836 | 0.621 | 0.591 | 0.745 | 0.454 |
| NCI-H1793 | 0.984 | 0.894 | 0.757 | 0.836 | 0.934 | 0.797 | 0.835 | 0.686 | 0.732 | 0.897 | 0.365 | 0.404 | 0.486 | 0.409 | 0.443 | 0.412 | 0.436 | 0.487 | 0.417 | 0.289 |
| NCI-H1915 | 0.993 | 1.01 | 0.945 | 0.85 | 0.544 | 1.1 | 1.08 | 1.04 | 1.05 | 1.06 | 0.305 | 0.383 | 0.334 | 0.251 | 0.262 | 0.675 | 0.678 | 0.688 | 0.636 | 0.477 |
| NCI-H1944 | 0.997 | 0.91 | 0.949 | 0.934 | 0.893 | 1.02 | 0.85 | 0.889 | 0.939 | 0.778 | 0.405 | 0.427 | 0.418 | 0.339 | 0.405 | 0.801 | 0.614 | 0.359 | 0.458 | 0.498 |
| NCI-H1975 | 0.956 | 0.996 | 0.757 | 0.855 | 0.841 | 0.768 | 0.642 | 0.656 | 0.607 | 0.648 | 0.384 | 0.581 | 0.288 | 0.367 | 0.311 | 0.743 | 0.815 | 0.673 | – | 0.589 |
| NCI-H1993 | 0.899 | 0.952 | 1.07 | 1.07 | 1.01 | 0.666 | 0.663 | 0.694 | 0.763 | 0.642 | 0.583 | 0.481 | 0.648 | 0.608 | 0.445 | 0.981 | 0.674 | 0.722 | 0.812 | 0.622 |
| NCI-H2085 | 1.01 | 1.05 | 0.985 | 1.03 | 0.995 | 0.965 | 0.946 | 1.04 | 0.928 | 0.98 | 0.534 | 0.512 | 0.477 | 0.562 | 0.518 | 0.987 | 1.06 | 0.988 | 1.06 | 0.834 |
